Experimental data published in patent publication US20150045553A1, “PHENYLTRIAZOLE DERIVATIVE” (TOSHO PHARMACEUTICAL CO., LTD, priority 2011, published 2015).
Counter-ions that a name gives are not always drawn. Like-named read-outs stand apart in the source and are kept apart here.

Legend:
[1] = Rat in vivo pharmacokinetic study (distribution among plasma, brain and cerebrospinal fluid); details: SD rats, single oral administration, 3 mg/kg, an hour after the administration
Description: (Test 3: Rat in vivo pharmacokinetic study)
SD rats were given a single oral administration of Compound No. 8, 19 or 22 at a dose of 3 mg/kg and an hour after the administration, the compound's distribution among the plasma, brain, and cerebrospinal fluid was checked. Quantification was effected by a high-performance liquid chromatography/tandem mass spectrometer API 4000 (LC-MS/MS; AB Sciex).

[2] = biological target: T1, P-glycoprotein (human MDR1) (Homo sapiens, UniProt P08183); test: P-glycoprotein substrate recognition test (LLC-GA5-COL300 cells, transwell); format: in vitro ADME; details: LLC-PK1, ratio of membrane permeation coefficients for apical→basal and basal→apical directions
T1 construct: expressed in transfected cells; host or cells: LLC-GA5-COL300 (LLC-PK1 pig kidney epithelial cells expressing human MDR1)
Description: (Test 4: P-Glycoprotein Substrate Recognition Test)
LLC-GA5-COL300 cells (Human MDR1 expressing system derived from pig kidney derived, cultured renal epithelial cell line LLC-PK1) were cultured on a transwell. Immediately before the test, the culture medium was replaced by Hank's balanced salt solution (HBSS) and the test was then conducted. A solution of an assay compound adjusted to a final concentration of 10 μM was added to the donor side of LLC-GA5-COL300 cells and after the passage of a predetermined period of time, a specified quantity of […] was sampled from the acceptor side. The concentration of the assay compound in the sample was measured by LC-MS/MS. From the amounts of the compound that accumulated and passed into the acceptor side, membrane permeation coefficients (×10^−6 cm/sec) were calculated for apical→basal and basal→apical directions and their relative ratio (efflux ratio) was determined to evaluate the P-glycoprotein substrate recognition.

H3 receptor = biological target: T2, H3 receptor (Rattus norvegicus, UniProt Q9QYN8); test: Rat H3 receptor binding test (N-α-methyl[3H]histamine, frontal cortex membrane fraction); details: N-α-methyl[3H]histamine 0.75 nM, room temperature, an hour
T2 construct: The frontal cortex dissected from rats was homogenized; from tissue; host or cells: rat frontal cortex membrane fraction
Description: (Test 1: Rat H3 Receptor Binding Test)
The frontal cortex dissected from rats was homogenized with a Teflon (registered trademark) homogenizer in a 50 mM Tris-HCl buffer solution (pH 7.4) containing a protease inhibitor (Complete EDTA-free; Roche Diagnostics) and 5 mM EDTA. The homogenate was centrifuged at 48,000×g for 15 minutes. The supernatant was removed and the pellet was suspended in a 50 mM Tris-HCl buffer solution (pH 7.4) containing 5 mM EDTA and centrifuged at 48,000×g for 15 minutes. The supernatant was removed and the pellet was suspended in a 50 mM Tris-HCl buffer solution (pH 7.4) containing 5 mM EDTA to give a membrane fraction. The membrane fraction (the protein content in the final reaction mixture: 75 μg), N-α-methyl[^3H]histamine (PerkinElmer; final concentration: 0.75 nM) and a test drug were mixed and subjected to reaction at room temperature for an hour. After the end of the reaction, the reaction mixture was suction filtered through a 96-well GF/C filter plate pretreated with 0.3% polyethyleneimine; the filters were then washed five times with a 50 mM Tris-HCl buffer solution (pH 7.4) containing 5 mM EDTA. After the washing, the filters were dried and a scintillator was added to measure the residual radioactivity on the filter with TopCount (PerkinElmer).
The residual radioactivity in the presence of 10 μM thioperamide was taken as indicative of nonspecific binding and the difference from the residual radioactivity in the absence of thioperamide was taken as indicative of specific binding. Each of the test drugs was dissolved and diluted in DMSO at varying concentrations to plot a dose-response curve from the corresponding residual radioactivities; the concentration of test drug that inhibited the specific binding by 50% (IC50) was determined from this curve.

histamine H3 receptor = biological target: T3, histamine H3 receptor (Rattus norvegicus, UniProt Q9QYN8); test: [35S]GTP-γ-S binding test (R(−)-α-methyl histamine stimulated, frontal cortex membrane fraction); format: biochemical; details: R(−)-α-methyl histamine 300 nM, [35S]GTP-γ-S 0.3 nM
T3 construct: The frontal cortex dissected from rats was homogenized; from tissue; host or cells: rat frontal cortex membrane fraction
Description: The frontal cortex dissected from rats was homogenized with a Teflon (registered trademark) homogenizer in a 30 mM Tris-HCl buffer solution (pH 7.4) containing 2.5 mM calcium chloride dihydrate. The homogenate was centrifuged at 48,000×g for 15 minutes. The supernatant was removed and the pellet was suspended in a 30 mM Tris-HCl buffer solution (pH 7.4) containing 2.5 mM calcium chloride dihydrate and centrifuged at 48,000×g for 15 minutes. The supernatant was removed and the pellet was suspended in a 30 mM Tris-HCl buffer solution (pH 7.4) containing 2.5 mM calcium chloride dihydrate and after incubation at 37° C. for 30 minutes, the suspension was centrifuged at 48,000×g for 15 minutes. The resulting supernatant was removed and the pellet was suspended in a 20 mM HEPES buffer solution (pH 7.4) containing 100 mM sodium chloride and 10 mM magnesium chloride to give a membrane fraction. […] After the washing, the filters were dried and a scintillator was added to measure the residual radioactivity on the filter with TopCount (PerkinElmer).
The residual radioactivity in the absence of R(−)-α-methyl histamine was taken as indicative of nonspecific binding and the difference from the residual radioactivity in the presence of R(−)-α-methyl histamine was taken as indicative of specific binding. […]

[3] = brain, read-out: intracerebral concentration
[4] = brain/plasma, read-out: brain/plasma movement ratio
[5] = cerebrospinal fluid, read-out: cerebrospinal fluid concentration
[6] = cerebrospinal fluid/plasma, read-out: cerebrospinal fluid/plasma movement ratio

T2 sequence (Q9QYN8 whole entry): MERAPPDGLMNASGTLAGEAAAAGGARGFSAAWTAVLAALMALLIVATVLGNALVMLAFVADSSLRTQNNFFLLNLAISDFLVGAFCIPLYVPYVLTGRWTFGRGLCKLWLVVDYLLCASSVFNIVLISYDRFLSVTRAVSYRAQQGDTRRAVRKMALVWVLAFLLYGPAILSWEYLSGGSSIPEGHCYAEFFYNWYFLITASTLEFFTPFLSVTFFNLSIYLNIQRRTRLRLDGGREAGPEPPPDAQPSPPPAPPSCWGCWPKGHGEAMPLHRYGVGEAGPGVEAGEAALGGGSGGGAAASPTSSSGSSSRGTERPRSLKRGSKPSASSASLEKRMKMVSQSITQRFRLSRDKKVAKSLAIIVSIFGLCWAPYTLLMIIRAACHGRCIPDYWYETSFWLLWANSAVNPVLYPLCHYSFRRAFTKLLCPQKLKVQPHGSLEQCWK
T1 sequence (P08183 whole entry): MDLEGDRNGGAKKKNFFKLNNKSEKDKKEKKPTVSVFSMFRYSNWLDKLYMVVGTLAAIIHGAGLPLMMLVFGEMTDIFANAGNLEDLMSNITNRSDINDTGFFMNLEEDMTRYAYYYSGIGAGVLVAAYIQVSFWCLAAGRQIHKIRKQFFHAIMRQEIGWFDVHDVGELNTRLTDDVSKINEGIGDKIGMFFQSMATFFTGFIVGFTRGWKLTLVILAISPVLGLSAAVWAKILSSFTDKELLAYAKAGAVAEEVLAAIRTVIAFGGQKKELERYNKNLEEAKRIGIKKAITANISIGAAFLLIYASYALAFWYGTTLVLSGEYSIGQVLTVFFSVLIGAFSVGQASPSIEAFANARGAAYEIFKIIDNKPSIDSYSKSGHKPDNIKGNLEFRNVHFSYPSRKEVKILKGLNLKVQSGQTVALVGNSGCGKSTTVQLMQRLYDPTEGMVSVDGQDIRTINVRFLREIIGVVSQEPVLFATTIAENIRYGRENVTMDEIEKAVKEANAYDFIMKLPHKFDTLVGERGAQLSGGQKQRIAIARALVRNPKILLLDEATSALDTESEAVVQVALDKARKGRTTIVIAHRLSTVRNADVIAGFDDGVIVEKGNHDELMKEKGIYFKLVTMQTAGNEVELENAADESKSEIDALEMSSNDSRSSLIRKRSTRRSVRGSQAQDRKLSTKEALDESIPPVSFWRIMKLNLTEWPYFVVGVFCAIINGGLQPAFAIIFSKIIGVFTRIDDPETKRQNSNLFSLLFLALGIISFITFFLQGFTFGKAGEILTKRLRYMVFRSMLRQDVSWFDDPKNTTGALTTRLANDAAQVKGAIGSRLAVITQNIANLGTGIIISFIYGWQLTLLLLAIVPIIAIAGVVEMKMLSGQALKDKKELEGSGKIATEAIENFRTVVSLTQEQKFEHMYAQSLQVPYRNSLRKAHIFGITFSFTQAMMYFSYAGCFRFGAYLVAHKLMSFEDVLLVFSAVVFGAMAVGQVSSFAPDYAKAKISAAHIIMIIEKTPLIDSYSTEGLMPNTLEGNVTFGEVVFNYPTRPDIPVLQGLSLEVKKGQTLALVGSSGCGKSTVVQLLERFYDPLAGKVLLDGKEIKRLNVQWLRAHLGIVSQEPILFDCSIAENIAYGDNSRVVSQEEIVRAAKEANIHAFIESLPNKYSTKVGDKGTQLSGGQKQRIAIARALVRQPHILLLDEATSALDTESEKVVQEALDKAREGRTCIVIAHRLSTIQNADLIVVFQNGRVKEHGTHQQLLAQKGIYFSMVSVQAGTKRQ
T3 sequence (Q9QYN8 whole entry): as the sequence (Q9QYN8 whole entry) above

## OCc1cn(-c2ccc(OC3CCN(C4CCC4)CC3)cc2)nn1 [Compound No. 22, (1-{4-[(1-cyclobutylpiperidin-4-yl)oxy]phenyl}-1H-1,2,3-triazol-4-yl)methanol]
[1]; [3]
  concentration at 1 h: 209 ng/g
[1]; [4]
  Kp at 1 h: 1.5
[1]; [5]
  concentration at 1 h: 67.6 ng/mL
[1]; [6]
  Kp at 1 h: 0.5
[2]
  efflux ratio at 10 μM: 1.1
H3 receptor
  IC50: 5.4 nM

## O=C(c1cn(-c2ccc(OC3CCN(C4CCC4)CC3)cc2)nn1)N1CCCC1 [Compound No. 8, (1-{4-[(1-cyclobutylpiperidin-4-yl)oxy]phenyl}-1H-1,2,3-triazol-4-yl)(pyrrolidin-1-yl)methanone]
[1]; [3]
  concentration at 1 h: 45.7 ng/g
[1]; [4]
  Kp at 1 h: 3
[1]; [5]
  concentration at 1 h: 2.9 ng/mL
[1]; [6]
  Kp at 1 h: 0.2
[2]
  efflux ratio at 10 μM: 1
Histamine H3 receptor
  IC50: ≤ 100 nM
H3 receptor
  IC50: 1.8 nM

## CNC(=O)c1cn(-c2ccc(OC3CCN(C4CCC4)CC3)cc2)nn1 [Compound No. 19, 1-{4-[(1-cyclobutylpiperidin-4-yl)oxy]phenyl}-N-methyl-1H-1,2,3-triazole-4-carboxamide]
[1]; [3]
  concentration at 1 h: 820 ng/g
[1]; [4]
  Kp at 1 h: 4.4
[1]; [5]
  concentration at 1 h: 134 ng/mL
[1]; [6]
  Kp at 1 h: 0.7
[2]
  efflux ratio at 10 μM: 0.7
H3 receptor
  IC50: 22 nM

## CC(C)(C)N1CCC(Oc2ccc(-n3cc(C#N)nn3)cc2)CC1 [Compound No. 32, 1-{4-[(1-tert-butylpiperidin-4-yl)oxy]phenyl}-1H-1,2,3-triazole-4-carbonitrile]
H3 receptor
  IC50: 67 nM

## CC(=O)c1ncn(-c2ccc(OC3CCN(C4CCC4)CC3)cc2)n1 [Compound No. 40, 1-(1-{4-[(1-cyclobutylpiperidin-4-yl)oxy]phenyl}-1H-1,2,4-triazol-3-yl)ethanone hydrochloride]
H3 receptor
  IC50: 6.4 nM
